We go through two compounds from US6777425B2, “Isoquinoline compounds having antiinfective activity” (Genesoft Pharmaceuticals, Inc., priority 2001, dated 2004).

The structures appear in SMILES notation. In brackets after ≈: the same amount, converted by molar mass. A value given as a limit tells only on which side of the number the result lay.

In test [1] the test system is S. aureus ATCC 13709. Kind of test: NCCLS broth microdilution MIC, S. aureus (MSSA). Format: cell-based, Staphylococcus aureus. The settings on record: organism E = S. aureus ATCC 13709 (MSSA). The source says: (§1) Compounds according to this invention were screened for their in vitro activities against selected species of bacteria and fungi. […]
The subject of test [2] is S. pneumoniae ATCC 51422. Kind of test: NCCLS broth microdilution MIC, S. pneumoniae (PRSP). The settings on record: organism I = S. pneumoniae ATCC 51422 (PRSP). The format is cell-based, Streptococcus pneumoniae.
Source text: as §1
For orientation: In broth dilution the organism is exposed to a series of concentrations in liquid medium.

The test system of test [3] is E. faecium ATCC 51559. Kind of test: NCCLS broth microdilution MIC, E. faecium (VRE). The format is cell-based, Enterococcus faecium. The conditions noted are these: organism D = E. faecium ATCC 51559 (VRE).
Source text: as §1

The subject of test [4] is C. albicans ATCC 38247. Kind of test: Antifungal MIC, C. albicans. The format is cell-based, Candida albicans. The conditions noted are these: organism B = C. albicans ATCC 38247.
Source text: as §1

In test [5] the test system is S. epidermidis ATCC 12228. Kind of test: NCCLS broth microdilution MIC, S. epidermidis. The format is cell-based, Staphylococcus epidermidis. The settings on record: organism G = S. epidermidis ATCC 12228.
Source text: as §1

Test [6] addresses target sequence AATTAATCAT, 352 base pair dsDNA restriction fragment of Plasmid B. Kind of test: Quantitative DNase I footprint titration, […]. The format is binding. The settings on record: 352 bp/B, pH 7.0, 22° C., read-out: Dissociation Constant Kd.
For test [7], the target named is target sequence AGTACT, 310 base pair dsDNA restriction fragment of Plasmid A. Kind of test: Quantitative DNase I footprint titration, AGTACT. The format is binding. The conditions noted are these: 310 bp/A, pH 7.0, 22° C., read-out: Dissociation Constant Kd.
In test [8] the test system is E. faecalis ATCC 29212. Kind of test: NCCLS broth microdilution MIC, E. faecalis. The format is cell-based. The conditions noted are these: organism C = E. faecalis ATCC 29212.
Source text: as §1

Test [9] relates to S. aureus ATCC 27660. Kind of test: NCCLS broth microdilution MIC, S. aureus (MRSA). Format: cell-based, Staphylococcus aureus. The settings on record: organism F = S. aureus ATCC 27660 (MRSA).
Source text: as §1

In test [10] the test system is B. cereus ATCC 11778. Kind of test: NCCLS broth microdilution MIC, B. cereus. Format: cell-based, Bacillus cereus. The conditions noted are these: organism A = B. cereus ATCC 11778.
Source text: as §1

The subject of test [11] is S. pneumoniae ATCC 49619. Kind of test: NCCLS broth microdilution MIC, S. pneumoniae ATCC 49619. Format: cell-based, Streptococcus pneumoniae. The settings on record: organism H = S. pneumoniae ATCC 49619.
Source text: as §1

Test [12] deals with target sequence ACAATTAAT, 352 bp fragment of Plasmid B. Kind of test: Quantitative DNase I footprint titration, […]. Format: binding. The settings on record: 352 bp/B, pH 7.0, 22° C., read-out: Dissociation Constant Kd.
[13] abbreviates: Staphylococcus aureus, read-out: Minimum Inhibitory Concentration (MIC).

`Cn1cc(NC(=O)c2cc3ccccc3cn2)cc1C(=O)Nc1cc(C(=O)Nc2cc(C(=O)NCCN3CCOCC3)n(CCN3CCOCC3)c2)n(C)c1` [Ib-56]: the MIC in test [1] (setting [13]) is less than 4 µg/mL; in test [2] (Streptococcus pneumoniae, read-out: Minimum Inhibitory Concentration (MIC)) it was less than 4 µg/mL; in [3] (Enterococcus faecium, read-out: Minimum Inhibitory Concentration (MIC)) it was 4 to 12 µg/mL (≈ 5.33 to 16 µM); in [4] (Candida albicans, ATCC38247, read-out: Minimum Inhibitory Concentration (MIC)), greater than 32 µg/mL; in test [5] (Staphylococcus epidermidis, ATCC12228, read-out: Minimum Inhibitory Concentration (MIC)) it was less than 4 µg/mL; in test [8] (Enterococcus faecalis, ATCC29212, read-out: Minimum Inhibitory Concentration (MIC)) it was less than 4 µg/mL. Besides, the MIC in test [9] (setting [13]) is less than 4 µg/mL; in test [10] (Bacillus cereus, ATCC11778, read-out: Minimum Inhibitory Concentration (MIC)) it was less than 4 µg/mL; in test [11] (Streptococcus pneumoniae, ATCC49619, read-out: Minimum Inhibitory Concentration (MIC)) it was less than 4 µg/mL. In addition, the Kd (in general, a measure of binding affinity in units of concentration) in test [6] was 5 nM; in [7], less than 100 nM.
Turning to `Cn1cc(NC(=O)c2cc3ccccc3cn2)cc1C(=O)Nc1cc(C(=O)Nc2cc(C(=O)NCCN3CCCCC3)ns2)n(C)c1` [Ib-59], the “Minimum Inhibitory Concentration (MIC)” value in test [1] is “+++ (+++ = MIC ≦ 4)”; in test [2] it was “+++ (+++ = MIC ≦ 4)”; in test [3], “+++ (+++ = MIC ≦ 4)”; in test [4], greater than 32 µg/mL; in [5], “+++ (+++ = MIC ≦ 4)”; in [8] it was “+++ (+++ = MIC ≦ 4)”. In addition, the “Minimum Inhibitory Concentration (MIC)” value in [9], in test [10] and in test [11] was “+++ (+++ = MIC ≦ 4)” in each case. Moreover, the Kd in test [7] was 50 nM; in [12] it was 1 nM.
